Source: US20050014782A1, “Novel n-(heterobicycloalkanes)-substituted indoles-or heteroderivatives thereof” (Boehringer Ingelheim International GmbH, priority 2003, published 2005)
Structures can show the parent of a compound that is named as a salt.

Key:
[1] = target: T1, human chemokine receptor CCR-3 (Homo sapiens, UniProt P51677); experiment: CCR-3 receptor binding assay, 125Jodine-eotaxin-1 Scintillation Proximity Assay (SPA)
T1 construct: expressed in transfected cells; host or cells: K562 cells (clone hCCR-3-C1), membranes
T1 sequence (P51677 1-355): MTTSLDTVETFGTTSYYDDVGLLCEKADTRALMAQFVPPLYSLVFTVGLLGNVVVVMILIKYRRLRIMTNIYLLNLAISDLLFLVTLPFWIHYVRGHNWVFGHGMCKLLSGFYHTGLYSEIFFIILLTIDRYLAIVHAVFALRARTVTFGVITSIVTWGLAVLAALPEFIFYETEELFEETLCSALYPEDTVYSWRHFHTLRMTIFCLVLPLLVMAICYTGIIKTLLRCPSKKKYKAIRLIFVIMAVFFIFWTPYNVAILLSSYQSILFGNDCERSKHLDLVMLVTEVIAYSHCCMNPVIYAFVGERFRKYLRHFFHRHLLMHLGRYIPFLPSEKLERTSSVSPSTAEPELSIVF
Protocol: The CCR-3 receptor binding test is based on a K562 cell line (leukemia myelogenic blast cells) transfected with the human chemokine receptor CCR-3 (hCCR-3-C1). The cell membranes were prepared by disrupting the hCCR-3 transfected K562 cells by […] and centrifugation at 40000 g, 4° C. for 1 h. The membranes were re-suspended in the SPA incubation buffer without bovine serum albumin for storage in aliquots at −80° C.
The CCR-3 receptor binding assay with the radioligand ^125Jodine-eotaxin-1 was performed in a Scintillation Proximity Assay (SPA) design. Cell membranes of hCCR-3 C1 cells were diluted in suitable concentrations (0.5-5 ug protein/well) in 96 well microtiter plates (1450-401, Wallac).
The test incubation mixture comprising 60 μl of the membrane suspension, 80 μl of the Wheat Germ Agglutinin coated PVT beads (organic scintillator, Amersham Pharmacia biotech) in a concentration of 0.4 mg and 40 μl of radiolabelled ^125J rhEotaxin (Amersham, IM290) were incubated with 20 μl of the test compound (dissolved in DMSO dilutions) for 2 hours. The SPA incubation buffer contained 25 mM HEPES, 25 mM MgCl2 6×H2O, 1 mM CaCl2 2×H2O and 0.1% bovine serum albumin. Included were controls for specific binding (no displacer added) and non-specific binding by adding unlabelled rhEotaxin (R&D Systems) or a test compound. Bound radioactivity was determined by scintillation counter (Micro Beta “Trilux”, Wallac). Determination of affinity of test compounds (dissociation constant Ki) was calculated by iterative fitting of experimental data using the law of mass action based program “easy sys” (Schittkowski, Num Math 68, 129-142 (1994)).

SMILES	melting point [°C]	Ki [1] [nM]
Cc1nc2cc(F)ccc2n1C1CC2CCC(C1)N2CCCSc1ccc(F)cc1 (centres unmarked) (as salt: HCl) [Example 11, 5-Fluoro-1-{8-[3-(4-fluoro-phenylsulfanyl)-propyl]-8-aza-bicyclo[3.2.1]oct-3-yl}-2-methyl-1H-benzoimidazole]	240 to 241	
Fc1ccc(SCCCN2C3CCC2CC(n2c(C4CC4)nc4cc(F)ccc42)C3)cc1 (centres unmarked) [Example 9, 2-Cyclopropyl-5-fluoro-1-{8-[3-(4-fluoro-phenylsulfanyl)-propyl]-8-aza-bicyclo[3.2.1]oct-3-yl}1H-benzoimidazole]		10
CCc1nc2cc(F)ccc2n1C1CC2CCC(C1)N2CCCSc1ccc(F)cc1 (centres unmarked) (as salt: HCl) [Example 10, 2-Ethyl-5-fluoro-1-{8-[3-(4-fluoro-phenylsulfanyl)-propyl]-8-aza-bicyclo[3.2.1]oct-3-yl}-1H-benzoimidazole]	127 to 128	
Cc1nc2cc(F)ccc2n1C1CC2CCC(C1)N2CCCSc1ccc(F)cc1 (centres unmarked) [Example 11, 5-Fluoro-1-{8-[3-(4-fluoro-phenylsulfanyl)-propyl]-8-aza-bicyclo[3.2.1]oct-3-yl}-2-methyl-1H-benzoimidazole]		14
CCc1nc2cc(F)ccc2n1C1CC2CCC(C1)N2CCCSc1ccc(F)cc1 (centres unmarked) [Example 10, 2-Ethyl-5-fluoro-1-{8-[3-(4-fluoro-phenylsulfanyl)-propyl]-8-aza-bicyclo[3.2.1]oct-3-yl}-1H-benzoimidazole]		6.5
